Consider two molecules from patent publication US20220267753A1, “RATIONAL THERAPEUTIC TARGETING OF ONCOGENIC IMMUNE SIGNALING STATES IN MYELOID MALIGNANCIES VIA THE UBIQUITIN CONJUGATING ENZYME UBE2N” (CHILDREN'S HOSPITAL MEDICAL CENTER, priority 2019, published 2022).

Series [1] concerns THP1-Blue NF-κB reporter cells. Put plainly: NF-κB activation assay. The class given is cell-based, human. The following applies: for UBE2N-dependent activation of NF-κB, reporter screen: top 14 small molecules. On the procedure:
THP1-Blue NF-κB reporter cells (Invivogen) were diluted to 100,000 cells/mL and stimulated with 1 μg/mL IL1β, 100 ng/ml Pam3CSK4 or 1 μ/m LPS. The cells were subsequently seeded into a 96 well plate at 20,000 cells per well (200 μl) and introduced to drugs in an increasing concentration. The plates were incubated at 37 C, 5% CO2 for 24 hours. The following day, QuantiBlue Reagent was warmed to 37 C in a water bath and 180 μl was added to each well of a separate, clean 96 well plate. The incubated cells were spun down, and the supernatant was taken for the assay. To perform the assay, 20 μl of supernatant from each well was pipetted into the respective 180 μl QuantiBlue Reagent well, in triplicate. The reaction was mixed and incubated for 1 to 4 hours, when a color gradient could be seen. The absorbance was read at 630 nm for a final readout.

A further series concerns the target T1, UBE2N wild type (Homo sapiens, UniProt P61088).
T1 construct: purchased Life sensors UB218
T1 sequence (P61088 1-152): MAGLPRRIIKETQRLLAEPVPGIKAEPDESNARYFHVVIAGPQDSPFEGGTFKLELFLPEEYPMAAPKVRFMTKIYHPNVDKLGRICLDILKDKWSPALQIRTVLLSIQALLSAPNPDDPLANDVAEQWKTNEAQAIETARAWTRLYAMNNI
The experiment in a line: Linear mass spectrometry (MALDI-TOF) analysis of drug binding. Particulars: MALDI-TOF-MS, incubated with compound. On the procedure:
(§1) Recombinant UBE2N (2 .tg; Life sensors #UB218) in 3 .tl of buffer containing 20 mM Tris-HCl pH 7.4, 10 mM DTT, 10% glycerol, 150 mM NaCl and 0.02% DMSO as well as six samples of 1 .tg UBE2N mixed with 0.2 .tg of UC-764864 or UC-764865 were diluted to 50 ng/uL in 0.1% formic acid (FA) in preparation of MALDI-TOF analysis. Two .tl aliquots from the samples were used to make a 1:5 dilution with MALDI matrix (5 mg/mL sinapic acid in 60% ACN/0.1% formic acid) with 1 .tL spotted onto the target plate for analysis. For UBE2N C87S mutant, recombinant protein was purchased from Genescript. 2 micrograms of protein as well as 3 samples of UBE2N C87S were mixed with 0.4 micrograms of UC-764864 and UC-764865 in 10 microliters of buffer containing 20 mM Tris HCl pH 7.4, 1 mM DTT, 150 mM NaCl and ˜0.01% of DMSO in each sample. All mixtures were brought up to 40 ul by adding 30 ul of 0.1% formic acid (FA). 5 ul aliquots from the samples were used to make a 1:5 dilution with MALDI matrix as described above. All spectra were acquired in Linear Positive Ion Mode on an ABSciex 4800 MALDI-TOF/TOF instrument, with E. coli thioredoxin (11,674.5; MH+ avg) and horse muscle apomyoglobin (15,952.6; MH+ avg) as mass calibration standards. For DSF, all proteins (UBE2N wild type and UBE2N C87S) were used at a final concentration of 5 .tM. SYPRO Orange (Invitrogen 56651, Carlsbad, Calif.) was used at a final concentration of 10× for UBE2N wild type and UBE2N C87S. Experiments were carried out in 20 mM Tris-HCl pH 8, 150 mM NaCl, 1 mM TCEP, and 10% DMSO. UC-764865 was mixed with the proteins at increasing concentrations, each sample was divided into three 25 .tl replicates in 48-well optical plates (Thermo Fisher Scientific 4375816, Waltham, Mass.) and the plate was sealed with optical PCR plate sheet (Thermo Fisher Scientific 4375928). All experiments were performed on a StepOne Real-Time PCR System (Applied Biosystems 4376357, Foster City, Calif.). The temperature was raised in 1° C. increments from 25° C. to 95° C. and fluorescence was measured at 530 nm. Derivative Tm was determined using Protein Thermal Shift Software version 1.3 by Applied Biosystems and then were analyzed with Prism 6 (GraphPad Software Inc.).

In a further series the target is T2, UBE2N C87S mutant (Homo sapiens, UniProt P61088, C87S).
T2 construct: purchased Genescript
The description is as above. Particulars: MALDI-TOF-MS. The procedure:
as §1

A short description of series [2]: In vivo preclinical pharmacokinetic analysis. Also on record: species or system C57BL/6 mice. Particulars: for drug-like / pharmacokinetic properties in words: mice; for AUC(0-inf) / AUC(0-t) / Cmax / Tmax / half-life: mouse, blood, ip, C57BL/6 mice, 20 mg/kg i.p., mean; for half-life: read-out: T½ (converted). The procedure:
PK studies of UC-764864 and UC-764865 were performed in C57BL/6 mice (18-22 g). 10 mg/kg and 20 mg/kg UC-764864 or UC-764865 was administered through intraperitoneal (i.p.) injection. After dosing, blood samples were collected at 15 min, 30 min, 1 h, 2 h, 4 h, 8 h, 12 h, and 24 h. Samples from three animals were collected at each time point. Approximately 500 μL of blood was collected via orbital vein from each mouse, processed, and analyzed by LC-MS. Standard curves were prepared in blood covering the concentration range of 50-3,0000 ng/mL. Using the data from the standard curves, calibration curves were generated for PK tests. For in vivo toxicity studies, 25 mg/kg UC-764864, UC-764865, 10 mg/kg NSC697923 or vehicle control (methocel 0.5% tween-20 0.2%,0.1% DMSO in water) were administered in B6.SJL-Ptprca Pepcb/BoyJ mice (n=3/group) through i.p. injection. For 2 weeks the mice received 4 doses of each compound. Routine body weight and blood counts were performed. At the end of the study, tissues were harvested, placed in 10% buffered formalin, stained with hematoxylin and eosin (H&E) and examined by a pathologist.

T2 sequence (P61088 whole entry C87S): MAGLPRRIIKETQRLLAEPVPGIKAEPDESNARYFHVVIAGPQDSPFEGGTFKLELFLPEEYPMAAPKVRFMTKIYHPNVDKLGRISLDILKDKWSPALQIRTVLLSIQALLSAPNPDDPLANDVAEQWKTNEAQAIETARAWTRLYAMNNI

Take `COc1ccc(C(=O)C=CSc2nc3ccc(C)cc3[nH]2)cc1` [UC-764865, 1-(4-methoxyphenyl)-3-[(6-methyl-1H-benzimidazol-2-yl)sulfanyl]prop-2-en-1-one]: the “UBE2N-dependent activation of NF-κB, reporter screen” value in series [1] is on record as “inhibition of UBE2N-dependent signaling”. The mass shift of wild-type UBE2N protein on UBE2N wild type stood at 160 Da. For the same molecule, the “binding to recombinant UBE2N(C87S) (mass shift)” value on UBE2N C87S mutant is given as “does not bind”. Moreover, in series [2], the “drug-like / pharmacokinetic properties in words” value is “modestly improved solubility, stability, and PK properties”; the AUC(0-inf) was found to be 413 ng·h/mL; the AUC(0-t) amounted to 346 ± 46.3 ng·h/mL; the Cmax is 216 ng/mL. In series [2], the Tmax is 0.33 h and the half-life was 8.8 h.

Regarding `CCc1ccc(C(=O)C=CSc2nc3ccc(C)cc3[nH]2)cc1` [UC-764864, 1-(4-ethylphenyl)-3-[(6-methyl-1H-benzimidazol-2-yl)sulfanyl]prop-2-en-1-one], the “UBE2N-mediated NF-κB activity downstream of IL1R, TLR2, TLR4” value in series [1] (increasing concentrations, concentration dependent, equal potency) is “inhibited UBE2N-mediated NF-κB activity”. Besides, in series [1], the “UBE2N-dependent activation of NF-κB, reporter screen” value was “inhibition of UBE2N-dependent signaling”. Besides, the mass shift of wild-type UBE2N protein on UBE2N wild type came to 160 Da. Moreover, the “binding to recombinant UBE2N(C87S) (mass shift)” value at UBE2N C87S mutant was “does not bind”. In series [2], the “drug-like / pharmacokinetic properties in words” value is “poor pharmacokinetic (PK) properties”, the AUC(0-inf) was 461 ng·h/mL, the AUC(0-t) turned out to be 436 ng·h/mL and the concentration peaked (Cmax) at 446 ng/mL. In series [2], the Tmax stood at 0.25 h and the half-life was 2.07 h.

As a reminder, the AUC(0-inf) is total exposure, with the tail of the curve extrapolated. As usually defined, the AUC(0-t) is the area under the concentration-time curve up to a stated or last time point. Higher therefore signals high exposure. As usually defined, the Cmax is the peak of the concentration-time curve. One may read the Tmax as the time from dosing to the highest level.
